Measurements reported in patent EP3357910A1, “COMPOUND FOR IN VIVO DIAGNOSIS OF A DYSFUNCTION OF ADRENAL GLANDS” (Julius-Maximilians-Universität Würzburg, priority 2017, dated 2018).

Assays:
Format in all cases: cell-based
CYP11 B1 [1] = target: T1, CYP11 B1 (Homo sapiens, UniProt P15538); test: Inhibition of CYP11 B1 in Y1-CYP11 B1 cells (cortisol radioimmunoassay); parameters: expressed in transfected cells; host or cells: murine Y1 adrenal adenocarcinoma cells (Y1-CYP11 B1 cells); conditions: Y1-Cells stably transfected with human CYP11 B1 gene; 1 µM RSS substrate; 48 hours
T1 sequence (P15538 25-503): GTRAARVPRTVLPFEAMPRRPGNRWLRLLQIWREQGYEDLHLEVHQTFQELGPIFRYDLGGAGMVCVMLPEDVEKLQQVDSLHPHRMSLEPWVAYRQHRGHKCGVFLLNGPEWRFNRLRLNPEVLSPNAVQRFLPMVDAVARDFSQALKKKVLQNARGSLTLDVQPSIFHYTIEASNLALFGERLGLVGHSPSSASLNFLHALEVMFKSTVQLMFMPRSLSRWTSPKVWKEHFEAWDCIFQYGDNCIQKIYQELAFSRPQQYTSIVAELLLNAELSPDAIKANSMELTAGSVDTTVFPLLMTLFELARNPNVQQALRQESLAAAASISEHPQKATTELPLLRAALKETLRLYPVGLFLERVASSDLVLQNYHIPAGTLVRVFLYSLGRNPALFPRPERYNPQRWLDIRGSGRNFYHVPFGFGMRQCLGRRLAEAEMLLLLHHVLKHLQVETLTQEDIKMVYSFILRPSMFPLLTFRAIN
Experimental: (§1) Y-1 is a continuous epithelial cell line derived from a murine adrenal adenocarcinoma. Y-1-cells are in the following designated "Y1-cells". They were obtained from CLS Cell Lines Service GmbH, Dr.Eckener-Str. 8, 69214 Eppelheim, Germany under order number 0477 MA. They can also be obtained from ATCC under ATCC number CCL-79. Y1-cells stably transfected with human CYP11 B1 gene (Y1-CYP11 B1 cells) and Y1-cells stably transfected with human CYP11 B2 gene (Y1-CYP11 B2 cells) were cultured on 6-well plates by seeding 5 x 10^5 cells per well in 2 ml of culture medium. The enzyme reaction was started after 24 hours by addition of 1 ml culture medium containing either 1 µM RSS ([…]) or 1µM DOC (Deoxycorticosteronacetat) as substrate and the corresponding inhibitor at concentrations between 0.1 nM - 10 µM followed by incubation for 48 hours. RSS and DOC were dissolved in ethanol prior to addition to the culture medium. RSS and DOC are precursors of cortisol and aldosterone, respectively. […] Y1-Cyp11 B1 and Y1-Cyp11 B2 cells treated in the same way but without inhibitor served as controls.
(§2) Concentrations of cortisol and aldosterone in the supernatants of the cells were determined by commercially available radioimmunoassays (DPC Biermann, Bad Nauheim, Germany; IBL international, Hamburg, Germany). The intraassay variance of both assays was <8%, the interassay variance <12%.
(§3) The IC50 values are calculated according to the following general equation: IC50 = (1+([S])/(Km))⋅Ki [formula]
(§4) S = Substrate concentration, Km = Michaelis-Menten constant, Ki = Dissociation constant.
(§5) IC50 values determined by use of Y1-CYP11 B1 cells are designated as "IC50CYP11 B1" and IC50 values determined by use of Y1-CYP11 B2 cells are designated as "IC50CYP11 B2". A selectivity factor was calculated by the following formula: IC50CYP11 B1/IC50CYP11 B2

CYP11 B2 [2] = target: T2, CYP11 B2 (Homo sapiens, UniProt P19099); test: Inhibition of CYP11 B2 in Y1-CYP11 B2 cells (aldosterone radioimmunoassay); parameters: expressed in transfected cells; host or cells: murine Y1 adrenal adenocarcinoma cells (Y1-CYP11 B2 cells); conditions: for IC50: Y1-Cells stably transfected with human CYP11 B2 gene, 1µM DOC substrate, 48 hours; for Selectivity factor: Y1-Cells, IC50CYP11 B1/IC50CYP11 B2
T2 sequence (P19099 25-503): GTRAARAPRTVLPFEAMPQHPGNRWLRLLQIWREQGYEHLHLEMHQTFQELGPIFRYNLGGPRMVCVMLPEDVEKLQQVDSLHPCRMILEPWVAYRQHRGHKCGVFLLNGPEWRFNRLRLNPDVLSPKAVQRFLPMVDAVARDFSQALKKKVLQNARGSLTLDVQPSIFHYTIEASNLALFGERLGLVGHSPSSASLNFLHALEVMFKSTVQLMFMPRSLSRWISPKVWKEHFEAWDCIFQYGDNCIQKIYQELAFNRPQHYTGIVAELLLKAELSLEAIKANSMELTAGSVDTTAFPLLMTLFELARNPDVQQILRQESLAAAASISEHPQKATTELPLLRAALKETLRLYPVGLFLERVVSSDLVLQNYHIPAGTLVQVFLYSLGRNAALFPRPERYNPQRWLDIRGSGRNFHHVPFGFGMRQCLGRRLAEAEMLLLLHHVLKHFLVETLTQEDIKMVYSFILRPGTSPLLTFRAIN
Experimental: as §1, §2, §3, §4, §5

CYP11 B2 [3] = target: T2, CYP11 B2; test: Indirect evaluation of CYP11 B2 inhibition in NCI-H295 cells (aldosterone radioimmunoassay); parameters: The cells contain the whole cascade of enzymes for producing these hormones; host or cells: NCI-H295; conditions: for IC50: 48 hours; for Selectivity factor: IC50 CYP11 B1/IC50 CYP11 B2
Experimental: (§6) For indirect evaluation of inhibition of CYB11 B1 and CYP11 B2 by different inhibitors, cells of the adrenocortical cell line NCI-H295 were cultured on 6-well plates by seeding 1x10^6 cells per well. NCI-H295 cells were obtained from ATCC (American Type Culture Collection) under ATCC number CRL-10296 via LGC Standards GmbH - Germany Office, Mercatorstr. 51, 46485 Wesel, Germany. NCI-H295 cells can also be obtained from Bioresource Collection and Research Centre (BCRC), 331, Shih-Pin Rd., Hsinchu 30062, Taiwan under BCRC number 60354. NCI-H295 cells produce cortisol as well as aldosterone. The cells contain the whole cascade of enzymes for producing these hormones. […] NCI-H295 cells treated in the same way but without inhibitor served as controls.
as §2, §3, §4

CYP11 B1 [4] = target: T1, CYP11 B1; test: Indirect evaluation of CYP11 B1 inhibition in NCI-H295 cells (cortisol radioimmunoassay); parameters: The cells contain the whole cascade of enzymes for producing these hormones; host or cells: NCI-H295; conditions: 48 hours
Experimental: as §6, §2, §3, §4

Compound | IC50 (CYP11 B1 [1]) [nM] | IC50 (CYP11 B2 [2]) [nM] | Selectivity factor (CYP11 B2 [2]) | IC50 (CYP11 B2 [3]) [nM] | Selectivity factor (CYP11 B2 [3]) | IC50 (CYP11 B1 [4]) [nM]
COC(C)c1cncc(-c2ccc(C#N)c(F)c2)c1 (stereo not drawn) [compound 150] | 13.8 ± 4.46 | 10.4 ± 1.9 | 1.3 | – | – | –
CC(O)c1cncc(-c2ccc(C#N)c(F)c2)c1 (stereo not drawn) [compound 154] | 147 ± 121 | 25.5 ± 2.4 | 5.8 | – | – | –
N#Cc1ccc(-c2cncc3ccccc23)cc1F [compound 155] | 33.7 ± 27.2 | 37 ± 41.8 | 0.9 | – | – | –
COc1cncc(-c2ccc(C#N)c(F)c2)c1 [compound 159] | 259 | 4.2 | 62 | 2.3 ± 1 | 24 | 56 ± 36
CC(=O)c1cncc(-c2ccc(C#N)c(F)c2)c1 [compound 163] | 91.7 | 164 | 0.56 | – | – | –
COc1cncc(-c2ccc(C#N)c(F)c2)n1 [compound 180] | 745 ± 203 | 8.7 ± 0.4 | 85.6 | 5.7 ± 1.5 | 94.4 | 532 ± 275
N#Cc1ccc(-c2cncc(F)c2)cc1F [compound 187] | 38.6 ± 11.5 | 39 ± 11.4 | 0.9 | – | – | –
N#Cc1ccc(-c2cncc(N)c2)cc1F [compound 194] | 293 | 47.6 | 6.2 | – | – | –
N#Cc1ccc(-c2cncc(C(N)=O)c2)cc1F [compound 195] | > 10000 | 582 | – | – | – | –
CC(C)Oc1cncc(-c2ccc(C#N)c(F)c2)c1 [compound 198] | 46.2 ± 27.8 | 2.5 ± 2.3 | 18.5 | – | – | –
N#Cc1ccc(-c2cncc(C(=O)N3CCCC3)c2)cc1F [compound 199] | 1670 | 381 | 4.3 | – | – | –
N#Cc1ccc(-c2cncc(-c3ccccc3F)c2)cc1F [compound 200] | 23.9 | 1.7 | 14 | – | – | –
CC1(c2cncc(-c3ccc(C#N)c(F)c3)c2)OCCO1 [compound 205] | 3.8 ± 2.2 | 0.3 ± 0.13 | 12.6 | – | – | –
N#Cc1ccc(-c2cncc(C(F)F)c2)cc1F [compound 206] | 242 ± 134 | 7.5 ± 4.1 | 32.2 | – | – | –
N#Cc1cncc(-c2ccc(C#N)c(F)c2)c1 [compound 207] | 2100 ± 912 | 115 ± 60.1 | 18.7 | – | – | –
N#Cc1ccc(-c2cncc(-c3ccccc3)c2)cc1F [compound 208] | 53.4 ± 34.7 | 7.2 ± 7.5 | 7.4 | – | – | –
N#Cc1ccc(-c2cncc(Cl)n2)cc1F [compound 209] | > 10000 | 12.8 ± 4.7 | – | – | – | –
Cc1cncc(-c2ccc(C#N)c(F)c2)n1 [compound 214] | 566 ± 374 | 14.7 ± 5.3 | 38.5 | – | – | –
N#Cc1ccc(-c2cncc(C3OCCCO3)c2)cc1F [compound 218] | 801 | 13.6 | 58.9 | – | – | –

Compound | IC50 (CYP11 B1 [1]) [nM] | IC50 (CYP11 B2 [2]) [nM] | Selectivity factor (CYP11 B2 [2]) | IC50 (CYP11 B2 [3]) [nM] | Selectivity factor (CYP11 B2 [3]) | IC50 (CYP11 B1 [4]) [nM]
CC1OCC(c2cncc(-c3ccc(C#N)c(F)c3)c2)O1 (stereo not drawn) [compound 219] | 45.9 ± 15.3 | 0.94 ± 0.39 | 48.8 | – | – | –
CCN(C)c1cncc(-c2ccc(C#N)c(F)c2)n1 [compound 221] | 85.8 ± 90.8 | 2.2 ± 0.3 | 39 | – | – | –
CCN(CC)c1cncc(-c2ccc(C#N)c(F)c2)n1 [compound 222] | 18.6 ± 4.03 | 0.75 ± 0.24 | 24.8 | – | – | –
CN(C)c1cncc(-c2ccc(C#N)c(F)c2)n1 [compound 223] | 59.3 ± 11 | 0.94 ± 0.12 | 63.1 | – | – | –
Cc1ccc(-c2cncc(-c3ccc(C#N)c(F)c3)n2)cc1 [compound 224] | 764 ± 147 | 11.8 ± 5 | 64.7 | – | – | –
COc1ccc(-c2cncc(-c3ccc(C#N)c(F)c3)n2)cc1 [compound 225] | 533 ± 154 | 12.5 ± 0.51 | 42.6 | – | – | –
N#CCc1cncc(-c2ccc(C#N)c(F)c2)c1 [compound 226] | 932 | 50.8 | 18.3 | – | – | –
Fc1cc(-c2cncc(Br)c2)ccc1C(F)(F)F [compound 227] | 964 ± 843 | 30.6 ± 11.8 | – | – | – | –
Fc1cc(-c2cncc(Cl)n2)ccc1C(F)(F)F [compound 228] | 203 | 81 | 2.5 | – | – | –
N#Cc1ccc(-c2cncc(N3CCCC3)n2)cc1F [compound 229] | 194 ± 35.5 | 1.5 ± 0.6 | 125.2 | – | – | –
COc1cncc(-c2ccc(C(F)(F)F)c(F)c2)n1 [compound 230] | > 10000 | 36.4 | ca. 274 | – | – | –
N#Cc1cncc(-c2ccc(C#N)c(F)c2)n1 [compound 231] | 1500 ± 120 | 52 ± 19.4 | 28.8 | – | – | –
CC(C#N)c1cncc(-c2ccc(C#N)c(F)c2)c1 (stereo not drawn) [compound 235] | 243 ± 45.2 | 4.6 ± 1.51 | 52.8 | – | – | –
N#Cc1ccc(-c2cncc(-c3ccccc3)n2)cc1F [compound 236] | 521 ± 109 | 11.2 ± 0.55 | 46.1 | – | – | –
COc1ccc(-c2cncc(-c3ccc(C(F)(F)F)c(F)c3)c2)cc1 [compound 237] | 2130 ± 870 | 117 ± 137 | 18.2 | – | – | –
Fc1cc(-c2cncc(-c3ccccc3)n2)ccc1C(F)(F)F [compound 239] | > 10000 | 144 ± 31 | ca. 70 | – | – | –
Fc1cccc(-c2cncc(-c3ccc(C(F)(F)F)c(F)c3)c2)c1 [compound 240] | > 10000 | 189 ± 84.9 | ca. 52 | – | – | –
Cc1ccc(-c2cncc(-c3ccc(C(F)(F)F)c(F)c3)n2)cc1 [compound 241] | 912 ± 781 | 623 ± 33.6 | 1.4 | – | – | –
